We go through two molecules from US20190053490A1, “USE OF ACTIVE SUBSTANCES FOR CONTROLLING VIRUS INFECTION IN PLANTS” (Bayer CropScience Aktiengesellschaft, priority 2016, published 2019).

Assay [1] has as its system tobacco mosaic virus (TMV). As to conditions: cited from earlier work.
The test system of assay [2] is Pseudomonas syringae pv tabaci. The following applies: cited from earlier work.
For assay [3], the system named is SA-inducible pathogenesis-related (PR)-1 proteins. The following applies: infiltrated leaves; cited from earlier work.
The subject of assay [4] is RNA silencing pathway (SULPHUR transcript) in SUC-SUL Arabidopsis reporter plants. Kind of assay: SUC-SUL Arabidopsis reporter plants, percentage of chlorosis (seedlings). The class given is in vivo, A. thaliana. As to conditions: 300 ppm spray, seedlings five days post-germination, assessed 14 days after treatment. From the text: The plants' RNA silencing pathway can be easily monitored with certain artificially-created reporter plants called the “SUC-SUL Arabidopsis reporter plants” (Dunoyer et al., Nat. Genet. 37, 1356-1360, 2005). The SUC-SUL Arabidopsis reporter plants are transgenic plants expressing an inverted-repeat (IR) double-stranded RNA designed to target the SULPHUR (SUL) transcript in the vasculature under the control of the SUC2 promoter (Truernit et al., Planta 196(3), 564-570, 1995). Once expressed, the dsRNA is processed into small interfering RNAs directing non-cell autonomous post-transcriptional gene silencing of the SULPHUR transcript, in turn causing vein-centered chlorosis. Since the observed chlorosis results from the silencing of the SULPHUR transcript, an expansion of the chlorosis, observable directly on the plants, is correlated with an intensification of the RNA silencing pathway at the molecular level. […] The effects of the treatments on the SUC-SUL reporter plants were assessed 14 days after treatment under trans-illumination and digitally recorded with a stereo-microscope by measuring the surface and intensity of the chlorotic zone (percentage of chlorosis). […]

Assay [5] relates to RNAi pathway (SUL transcript, SUL protein, SUL siRNAs) in SUC-SUL Arabidopsis plants. Kind of assay: Molecular confirmation in four-week-old SUC-SUL Arabidopsis plants. The class given is in vivo. As to conditions: 200 ppm spray, seven days after treatment. From the text: The enhancing effect of DFPM on the RNAi machinery has been validated at the phenotypic and molecular levels. Four-week-old SUC-SUL Arabidopsis plants at rosette stage were sprayed with DFPM at 200 ppm. […] The plant aerial tissues were collected and analyzed molecularly using state-of-the-art methodologies. […] Furthermore, these effects were associated with an over-accumulation of both SUL 21-nt and 24-nt long siRNAs derived from the transgenic SUL.

For assay [6], the system named is Turnip mosaic virus (TuMV-GFP). Kind of assay: Antiviral efficacy against TuMV-GFP on Arabidopsis. The class given is in vivo. As to conditions: 100 or 200 ppm sprayed 3 days before infection. On the procedure:
The Turnip mosaic virus (TuMV) belongs to the Potyviridae, the largest family of known plant viruses. This virus infects a wide range of plants, in particular Brassicaceae. TuMV genome consists of a positive-sense single-stranded RNA molecule (+ssRNA). The antiviral efficacy of DFMP was tested with a fluorescently-tagged potyvirus (TuMV-GFP) in order to specifically pinpoint when and where the effect of the molecules is induced during virus primary infection, as well as its local or systemic spread.
Arabidopsis plants were sprayed with 100 or 200 ppm of DFMP 3 days before infecting the plants with the TuMV-GFP virus. Virus titers were measured by qPCR and/or virus protein accumulation on Western blot analyses and by counting the number of primary infection foci under UV light in the case of the TuMV-GFP.

The subject of assay [7] is Turnip crinkle virus (TCV). Kind of assay: Antiviral efficacy against TCV. The class given is in vivo. The following applies: 100 ppm. From the text: (§1) Similar results were obtained with DFPM with the unrelated viruses Turnip crinkle virus (TCV,) and Cauliflower mosaic virus (CaMV). The TCV belongs to the Tombusviridae family and infects various types of plant species including the common plant models A. thaliana and N. benthamiana. Its genome is another example of +strand RNA virus. The CaMV belongs to the Caulimoviridae family. It infects mostly Brassicaceae such as turnip and cabbage, but is also able to infect A. thaliana. CaMV consists of a double-stranded DNA molecule.

Assay [8] deals with Cauliflower mosaic virus (CaMV). The assay can be described thus: Antiviral efficacy against CaMV. It is filed as in vivo. The following applies: 100 ppm.
Description: as §1

In assay [9] the test system is Bean pod mottle virus (BPMV-GFP). Kind of assay: Antiviral efficacy against BPMV-GFP on soybean plants. The following applies: seven days-post-infection. The class given is in vivo. On the procedure:
The Bean pod mottle virus (BPMV) is a plant pathogenic virus of the family Comoviridae. This virus infects legumes and more particularly soybean. BPMV genome consists of a bipartite positive-sense single-stranded RNA molecule (+ssRNA). The antiviral efficacy of silencing enhancers was tested with a fluorescently-tagged comoviruss (BPMV-GFP) in order to specifically pinpoint when and where the effect of the molecules is induced during virus primary infection, local or systemic spread.
Soybean plants were sprayed with 100 or 200 ppm of DFPM and emulsifiable concentrate (EC) Premix one day before to infect the plants with the BPMV-GFP virus. Twelve replicates were used for each condition.

Assay [10] relates to ABA-dependent gene expression and ABA-induced stomatal closure. As to conditions: in vivo; cited from earlier work.
Assay [11] concerns PHYTOALEXIN DEFICIENT4 (PAD4) and ENHANCED DISEASE SUSCEPTIBILITY1 (EDS1). As to conditions: in vivo; cited from earlier work.
The mark [12] stands for this setting: 100 ppm sprayed one day before infection.
[13] abbreviates: 200 ppm sprayed one day before infection.

For `COC(=O)N(OC)c1ccccc1COc1ccn(-c2ccc(Cl)cc2)n1` [Pyraclostrobin], the “TMV resistance in NahG transgenic tobacco plants” value in assay [1] (NahG transgenic tobacco unable to accumulate salicylic acid) is on record as “able to enhance TMV resistance”. The “resistance of tobacco against infection by TMV” value in [1] (tobacco) is on record as “enhance the resistance”. For the same molecule, the “resistance of tobacco against infection by Pseudomonas syringae pv tabaci” value in assay [2] is “enhance the resistance”. Also, the “accumulation of SA-inducible PR-1 proteins” value in [3] is “did not cause the accumulation”.
As for `S=C(c1ccc(-c2ccc(Cl)c(Cl)c2)o1)N1CCCCC1` [DFPM, [5-(3,4-Dichlorophenyl)Furan-2-yl]-Piperidin-1-ylMethanethione], the percentage of chlorosis entry in assay [4] was “significant increase”. In assay [5] (aerial tissues), the “SUL 21-nt and 24-nt long siRNAs” value is “over-accumulation”; the “SUL protein levels (Western blot)” value was “reductions in SUL protein levels”; the “SUL transcript levels (real-time qRT-PCR, FIG. 1)” value is “reductions in SUL transcript levels”. For the same molecule, in [5] (vs DMSO only), the “RNAi-dependent vein-centered chlorotic phenotype” value was “clear expansion”. For the same molecule, the “virus accumulation on inoculated leaves (infection foci, FIG. 2)” value in assay [6] (five days post-infection) was “strong reduction”. The “accumulation of virus titers” value in assay [6] (five days-post-infection) is recorded as “clear reduction”. Further, the “virus accumulation on systemic tissues (TuMV-derived HcPro mRNA levels, FIG. 3)” value in assay [6] (six days post-infection) was “strong reduction”. In addition, in assay [7], the “virus accumulation on inoculated leaves and systemic tissues (TCV-derived P38 mRNA)” value is on record as “strong reduction”. Moreover, the “virus accumulation on inoculated leaves and systemic tissues (CaMV-derived P6 mRNA)” value in [8] is recorded as “strong reduction”. In [9] (100 or 200 ppm), the “BPMV fluorescence on soybean” value was “clear reduction” and the “number of plants showing BPMV symptoms” value is reported as “clear reduction”. In [9] (setting [12]), the “Average of Percentage of BPMV fluorescence” value is 31% and the “Percentage of plants showing BPMV symptoms” value is on record as 55%. In assay [9] (setting [13]), the “Average of Percentage of BPMV fluorescence” value came out at 8% and the “Percentage of plants showing BPMV symptoms” value was found to be 10%. Also, in assay [10], the “ABA-dependent gene expression in plant” value is given as “rapidly downregulates” and the ABA-induced stomatal closure entry is “inhibits”. The “expression of plant defense-related genes including PAD4 and EDS1” value in assay [11] was “stimulates”.
